Counter-ions that a name gives are not always drawn. Like-named read-outs stand apart in the source and are kept apart here.
Assays:
[1] = toxicity (LD50), p.o. in the mouse; details: in vivo, po
Experimental: The MAO inhibiting activity of the compounds in accordance with the invention can be determined using standard methods. Thus, the substances to be tested were administered p.o. to rats. Two hours thereafter the animals were killed and the MAO inhibiting activity was measured in homogenates of the brain according to the method described in Biochem. Pharmacol. 12 (1963) 1439-1441, but using phenethylamine (2.10^-5 mol.1^-1) in place of tyramine as the substrate. The thus-determined activity of some compounds in accordance with the invention as well as their toxicity are evident from the following ED50 values (μmol/kg, p.o. in the rat) and LD50 values (mg/kg, p.o. in the mouse), respectively: […]

monoamine oxidase (MAO) = molecular target: T1, monoamine oxidase (MAO) (Rattus norvegicus, UniProt P19643); test: MAO inhibiting activity measured in homogenates of the brain two hours after p.o. administration to rats (phenethylamine as substrate); format: in vivo; details: po, read-out: ED50 (MAO inhibiting activity)
T1 construct: from tissue; host or cells: rat brain homogenate (ex vivo, two hours after p.o. dosing)
T1 sequence (P19643 1-520): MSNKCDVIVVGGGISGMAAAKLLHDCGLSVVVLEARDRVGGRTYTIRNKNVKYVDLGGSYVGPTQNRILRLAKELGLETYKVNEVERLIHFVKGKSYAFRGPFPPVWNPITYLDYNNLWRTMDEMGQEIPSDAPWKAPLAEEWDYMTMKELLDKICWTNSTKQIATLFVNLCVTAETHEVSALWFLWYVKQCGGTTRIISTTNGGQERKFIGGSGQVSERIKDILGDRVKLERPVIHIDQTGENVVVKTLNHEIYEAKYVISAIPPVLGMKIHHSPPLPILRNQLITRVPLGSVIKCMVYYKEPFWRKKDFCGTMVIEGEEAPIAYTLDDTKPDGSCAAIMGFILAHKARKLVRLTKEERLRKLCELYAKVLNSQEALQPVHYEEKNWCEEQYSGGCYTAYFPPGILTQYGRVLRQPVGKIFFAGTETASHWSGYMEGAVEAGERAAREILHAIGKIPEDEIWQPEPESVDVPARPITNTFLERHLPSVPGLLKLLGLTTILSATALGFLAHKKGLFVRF
Experimental: The MAO inhibiting activity of the compounds in accordance with the invention can be determined using standard methods. Thus, the substances to be tested were administered p.o. to rats.

Compound | LD50 [1] [mg/kg] | ED50 (monoamine oxidase (MAO); rat, 2 h) [µmol/kg] | ED50 (monoamine oxidase (MAO); p.o. in the rat, brain homogenates 2 hours after administration, substrate phenethylamine 2.10^-5 mol.1^-1) [µmol/kg]
Cc1cc(C(=O)NCCN)no1.Cl [N-(2-aminoethyl)-5-methylisoxazole-3-carboxamide hydrochloride] | > 4000 | 20 | 
Cl.Cl.NCCNC(=O)c1ccccn1 [N-(2-aminoethyl)-pyridine-2-carboxamide dihydrochloride] | > 4000 | 1.7 | 
NCCNC(=O)c1cccc(Cl)n1 [N-(2-aminoethy)-6-chloropyridine-2-carboxamide hydrochloride] | 625 to 1250 |  | 10
Cl.NCCNC(=O)c1csc(Cl)n1 [N-(2-aminoethyl)-2-chlorothiazole-4-carboxamide hydrochloride] | 2500 to 5000 | 6 | 
Cl.NCCNC(=O)c1cccc(Br)n1 [N-(2-aminoethyl)-6-bromopyridine-2-carboxamide hydrochloride] | 1000 to 2000 | 8 | 
Cl.NCCNC(=O)c1cc(Br)ccn1 [N-(2-aminoethyl)-4-bromopyridine-2-carboxamide hydrochloride] | 1000 to 2000 | 4 | 
Cl.Cl.NCCNC(=O)c1ncccc1N [N-(2-aminoethyl)-3-aminopyridine-2-carboxamide dihydrochloride] | 2500 to 5000 | 5 | 
Cl.NCCNC(=O)c1cc(Cl)ccn1 [N-(2-aminoethyl)-4-chloropyridine-2-carboxamide hydrochloride] | 1250 to 2500 | 5 | 
Cl.NCCNC(=O)c1ccc(Cl)cn1 [N-(2-aminoethyl)-5-chloropyridine-2-carboxamide hydrochloride] | 1000 to 2000 |  | 
Cl.NCCNC(=O)c1ncsc1Br [N-(2-aminoethyl)-5-bromothiazole-4-carboxamide hydrochloride] | 1250 to 2500 | 10 | 

— patent US4764522A, “Ethylenediamine monoamides” (Hoffmann-La Roche Inc., priority 1984, dated 1988)
